# “Also recorded” adds a separate entry of the source. Where two headings read alike, the source gives them in different places.
# Tests used:
# [1] = system: MOSs derived from multiple myeloma (MM) bone marrow biopsies; assay: Multiple myeloma MOS apoptosis assay, Caspase 3/7 green dye, Incucyte imaging; assay type: cell-based, human; conditions: imaged every 2 hours for 4 days
# Procedure: FIGS. 36A and 36B show the efficacy of Lenalidomide and Bortezoid on MOSs derived from multiple myeloma (MM) bone marrow biopsies. MM MOSs (on day 11) were treated with Lenalidomine (5 uM) or Bortezoid (2 nM). Caspase 3/7 green dye was added in the assay to monitor apoptosis. Incucyte images were taken every 2 hours for 4 days. […] If this test were run on, for example, traditional bulk organoids, the results would not be reliable (due to the lack of patient immune cells) leading to uncertainty in the best course of action for patient treatment.
# [2] = system: tumor; assay: Patient response to standard of care drugs (Example 3); assay type: in vivo, human; conditions: patient treated with both Oxalipalatin and Irinotecan, after 6 months of treatment
# Procedure: (§1) In a similar set of experiments, MOSs were generated from biopsy material (FIG. 23A), and a drug effect screen was performed using the resulting MOSs. […] Thus, the MOSs correlated strongly with patient response to the standard of care drugs. In this case, the patient endured six months of side effects and toxicities that may have been avoided by the predicted response from the MOSs, indicating (within 7-10 days from the biopsy) that the tumor would not respond to these drugs.
# [3] = system: MOSs generated from biopsy material; assay: Drug effect screen on MOSs from biopsy material (Example 3); assay type: cell-based, human; conditions: Example 3 patient biopsy
# Procedure: as §1
# [4] = system: PDX19187 bulk organoids and MOSs; assay type: cell-based, human; conditions: cell viabilities measured after 3 days of treatment
# Procedure: (§2) Organoids were formed from Patient Derived Xenograft cells (including the PDX240 cells described above and a second PDX cell line, PDX19187) and were compared with MOSs formed using the same cells. The organoids were formed using conventional techniques in which a large mass of MATRIGEL in a well or dish was seeded with cells and cultured until growth was confirmed. MOSs were generated from the traditional organoids.
# (§3) Both traditional (“bulk”) organoids and the MOSs were then treated with the same drugs (e.g., Oxaliplatin or SN38) and cell viabilities were measured after 3 days of treatment.
# [5] = system: tumor; assay: Actual tumor response of the patient to treatment (Example 2); assay type: in vivo, human; conditions: Example 2 patient, before vs post treatment
# [6] = system: traditional cell line; assay: Traditional (2D) cell line dosed with drug; assay type: cell-based; conditions: all dose ranges examined
# From the text: As mentioned above, the MOSs and methods of using them to screen for drug compositions may be used to accurately predict the response of a patient tumor to one or more drug therapies. […] For example, in FIG. 22A-22D, the MOSs, but not a cell line, was able to correlate with patient response.
# [7] = system: tumor MOSs generated from a patient biopsy; assay: Drug screen on MOSs from patient biopsy (Example 2); assay type: cell-based, human; conditions: Example 2 patient biopsy
# [8] = system: PDX240 bulk organoids and MOSs; assay: Drug response of bulk organoids vs MOSs, cell viability, PDX240; assay type: cell-based, human; conditions: cell viabilities measured after 3 days of treatment
# From the text: The MOSs may be formed from cell lines grown as part of a Patient Derived Xenograft (PDX). For example, FIGS. 28A-28D illustrate MOSs formed from cultured PDX240 cells. PDX240 cells are a Patient Derived Xenograft (PDX) tumor cell line (numbered 240 based on patient source) that were human tumors grown in immunodeficient mice (PDX) to form in vivo tumors. The xenograft tissue was extracted dissociated, and used to form MOSs as described above. In this example a single cell was included in each MOS as it was formed. […] With progressive time in culture, at least some of the MOSs show the cells dividing and forming structures.
# as §2, §3
# [9] = system: human liver MOSs; assay: Toxicity assay using human liver MOSs; assay type: cell-based; conditions: 10 mM
# From the text: Similarly, FIGS. 34A-34B also show toxicity assays using human liver MOSs.
# [10] = system: mouse liver MOSs; assay: Toxicity assay using mouse liver MOSs; assay type: cell-based; conditions: 10 mM
# [11] = system: MOSs derived from renal tumor biopsies; assay: IO assay of renal tumor MOSs, Annexin V apoptosis marker; assay type: cell-based, human; conditions: MOSs from renal tumor biopsy
# Procedure: IO assays of the MOSs for these pulmonary and renal tumor biopsies were prepared with an Annexin V marker to indicate cellular apoptosis. […] If this test were run on, for example, traditional bulk organoids, the results would not be meaningful (due to the lack of patient immune cells) leading to uncertainty in the best course of action for patient treatment, […]
# [12] = system: MOSs derived from a pulmonary tumor biopsy; assay: IO assay of pulmonary tumor MOSs, Annexin V apoptosis marker; assay type: cell-based, human
# Procedure: IO assays of the MOSs for these pulmonary and renal tumor biopsies were prepared with an Annexin V marker to indicate cellular apoptosis. […] If this test were run on, for example, traditional bulk organoids, the results would not be meaningful (due to the lack of patient immune cells) leading to uncertainty in the best course of action for patient treatment,
# (§4) IO assays of the MOSs for this pulmonary tumor biopsy were prepared with an Annexin V marker to indicate cellular apoptosis. […] If this test were run on, for example, traditional bulk organoids, the results would be less accurate (because ESK1 would not be able to reach its target) leading to uncertainty in the best course of action for patient treatment.
# as §4, with “apoptosis and Cytolight Red dye to indicate tumor infiltrating lymphocytes (TILs).” for “apoptosis.”, “(due” for “(because ESK1 would not be able”, “the inability of PBMC to penetrate the traditional bulk organoids)” for “reach its target)”
# This is an indication that TILs can penetrate MOS to kill tumor cells. […]
molecule,measurement,setting,value
CC(C)C[C@H](NC(=O)[C@H](Cc1ccccc1)NC(=O)c1cnccn1)B(O)O [Bortezoid],response in the form of tumor cell apoptosis (Caspase 3/7 green dye),"[1]; MM MOSs on day 11, 2 nM",does not and not
CCc1c2c(nc3ccc(OC(=O)N4CCC(N5CCCCC5)CC4)cc13)-c1cc3c(c(=O)n1C2)COC(=O)[C@]3(O)CC [Irinotecan],patient response,[2],no response
same,percent survival of the MOSs in the presence of the drug,[3],lack of effect
Nc1cccc2c1CN(C1CCC(=O)NC1=O)C2=O (centres unmarked) [Lenalidomide],response in the form of tumor cell apoptosis (Caspase 3/7 green dye),"[1]; MM MOSs on day 11, 5 uM",good response
same,response in the form of tumor cell apoptosis (Caspase 3/7 green dye),"[1]; MM MOSs on day 11, 5 uM, listed as Lenalidomine",induces apoptosis
O=C1[O][Pt]2([NH][C@@H]3CCCC[C@H]3[NH]2)[O]C1=O [Oxaliplatin],"drug response curves, bulk organoids compared with MOSs",[4]; listed as Oxalipalatin,comparable response
same,tumor response to treatment,[5],responded to treatment
same,effect of drug on cell line,[6],no effect
same,patient response,[2],no response
same,percent survival of the MOSs in the presence of the drug,[3],no change
same,cell survival from the tumor MOSs,[7],significant decreases in cell survival
"CCc1c2c(nc3ccc(O)cc13)-c1cc3c(c(=O)n1C2)COC(=O)[C@]3(O)CC [SN38, 7-Ethyl-10-hydroxy-camptothecin]","drug response curves, bulk organoids compared with MOSs",[4],comparable responses
same,"drug response curves, bulk organoids compared with MOSs",[8],comparable responses
CC(=O)Nc1ccc(O)cc1 [acetaminophen],tissue in the treated MOSs compared with control group,[9],significant increase atypical tissue structures (arrows) and debris
same,tissue in the MOSs compared with control group,[10],smaller and contains many dead cells
Nivolumab,response in the form of tumor cell apoptosis (Annexin V marker),[11],induces apoptosis; also recorded: good response
same,response in the form of tumor cell apoptosis (Annexin V marker),[12],induces apoptosis; also recorded: good response
